Measured values reported in US20100086615A1, “AGENT FOR TREATMENT OF PULMONARY DISEASE” (KYUSHU UNIVERSITY, NATIONAL UNIVERSITY CORPORATION, priority 2007, published 2010).

Tested on: LPS-induced acute lung injury mice
Experiment: Intratracheal administration in LPS-induced acute lung injury model; cells counted in bronchoalveolar lavage fluid
Assay type: in vivo, mice (male BALB/c)
Conditions: non-polymer-incorporated solution in saline (50 μL), intratracheal, 0.2, 2 or 20 μg/body; n=8

In the case of O=C([O-])C[C@H](O)C[C@H](O)/C=C/c1c(C2CC2)nc2ccccc2c1-c1ccc(F)cc1.O=C([O-])C[C@H](O)C[C@H](O)/C=C/c1c(C2CC2)nc2ccccc2c1-c1ccc(F)cc1.[Ca+2] [pitavastatin calcium], the “Effect of inhibiting migration of inflammatory cells (result in words)” value is reported as “did not exhibit the effect of inhibiting migration of inflammatory cells”.
